Source: ChEMBL document CHEMBL5055651, “Synthesis of small molecules targeting paclitaxel-induced MyD88 expression in triple-negative breast cancer cell lines” (Bioorg Med Chem, 2021)

Key:
MDA-MB-231 [1] = experiment: Cytotoxicity against human MDA-MB-231 cells expressing TLR4 assessed cell growth inhibition at 10 uM measured after 96 hrs by MTT assay relative to control; assay type: functional; conditions: read-out: GI
BEAS-2B = experiment: Cytotoxicity against human BEAS-2B cells reduction in cell viability measured after 96 hrs by MTT assay; assay type: cell-based
[2] = Suppression of MyD88 expression in human MDA-MB-231 cells expressing TLR4 at 1 uM pretreated with compounds for 24 hrs followed by PTX challenge and measured after 24 hrs by ELISA relative to control; assay type: functional; conditions: time 48 hrs
[3] = Effect on MyD88 expression in human MDA-MB-231 cells expressing TLR4 at 0.1 to 10 uM after 24 hrs by ELISA; assay type: cell-based; conditions: mda-mb-231, 24 h, dose 0.1-10 µM
MDA-MB-231 [4] = experiment: Cytotoxicity against human MDA-MB-231 cells expressing TLR4 assessed as reduction in cell viability measured after 96 hrs by MTT assay; assay type: functional, cell-based; conditions: MDA-MB-231, 96 h
[5] = Suppression of MyD88 expression in human MDA-MB-231 cells expressing TLR4 at 0.1 uM pretreated with compounds for 24 hrs followed by PTX challenge and measured after 24 hrs by ELISA relative to control; assay type: functional; conditions: time 48 hrs
MCF7 [6] = experiment: Cytotoxicity against human MCF7 cells expressing TLR4 assessed cell growth inhibition at 10 uM measured after 96 hrs by MTT assay relative to control; assay type: functional; conditions: read-out: GI
HCC1806 [7] = experiment: Cytotoxicity against human HCC1806 cells assessed cell growth inhibition at 10 uM measured after 96 hrs by MTT assay relative to control; assay type: functional; conditions: read-out: GI
MCF7 [8] = experiment: Cytotoxicity against human MCF7 cells expressing TLR4 assessed as reduction in cell viability measured after 96 hrs by MTT assay; assay type: functional, cell-based; conditions: MCF7, 96 h
[9] = Suppression of MyD88 expression in human MDA-MB-231 cells expressing TLR4 at 10 uM pretreated with compounds for 24 hrs followed by PTX challenge and measured after 24 hrs by ELISA relative to control; assay type: functional; conditions: time 48 hrs
HCC1806 [10] = experiment: Cytotoxicity against human HCC1806 cells assessed as reduction in cell viability measured after 96 hrs by MTT assay; assay type: functional, cell-based; conditions: HCC1806, 96 h
[11] = Selectivity index, ratio of IC50 for human BEAS-2B cells to IC50 for human MDA-MB-231 cells; assay type: toxicity; conditions: BEAS-2B cells versus MDA-MB-231 cells, read-out: Selectivity Index
[12] = Selectivity index, ratio of IC50 for human BEAS-2B cells to IC50 for human MCF7 cells; assay type: toxicity; conditions: BEAS-2B cells versus MCF7 cells, read-out: Selectivity Index
HCC1806 [13] = experiment: Cytotoxicity against human HCC1806 cells assessed as growth inhibition measured after 96 hrs by MTT assay; assay type: cell-based; conditions: HCC1806, 96 h
MDA-MB-231 [14] = experiment: Cytotoxicity against human MDA-MB-231 cells expressing TLR4 assessed as growth inhibition measured after 96 hrs by MTT assay; assay type: functional, cell-based; conditions: MDA-MB-231, 96 h
MDA-MB-231 [15] = experiment: Cytotoxicity against human MDA-MB-231 cells expressing TLR4 assessed as cell viability at 10 uM measured after 96 hrs by MTT assay relative to control; assay type: functional; conditions: read-out: Activity
MCF7 [16] = experiment: Cytotoxicity against human MCF7 cells expressing TLR4 assessed as cell viability at 10 uM measured after 96 hrs by MTT assay relative to control; assay type: functional; conditions: read-out: Activity
HCC1806 [17] = experiment: Cytotoxicity against human HCC1806 cells assessed as cell viability at 10 uM measured after 96 hrs by MTT assay relative to control; assay type: functional; conditions: read-out: Activity

O=C(C1=C(O)/C(=C/c2ccc(C(F)(F)F)cc2)CCC1)c1ccccc1
inhibition of growth at 10 µM (MDA-MB-231 [1]): 8% | IC50 (BEAS-2B): 3800 nM | Activity [2]: 24.77% | Activity [3]: 23% | IC50 (MDA-MB-231 [4]): 6500 nM | Activity [5]: 17.64% | inhibition of growth at 10 µM (MCF7 [6]): 8% | inhibition of growth at 10 µM (HCC1806 [7]): 8% | IC50 (MCF7 [8]): 2300 nM | Activity [9]: 27.94% | IC50 (HCC1806 [10]): 5330 nM

CC(=O)O[C@H]1C(=O)[C@@]2(C)[C@H]([C@H](OC(=O)c3ccccc3)[C@]3(O)C[C@H](OC(=O)[C@H](O)[C@@H](NC(=O)c4ccccc4)c4ccccc4)C(C)=C1C3(C)C)[C@]1(OC(C)=O)CO[C@@H]1C[C@@H]2O [PACLITAXEL]
IC50 (BEAS-2B): 8 nM | selectivity ratio [11]: 0.2 | IC50 (MDA-MB-231 [4]): 40 nM | selectivity ratio [12]: 0.26 | IC50 (HCC1806 [13]): 8 nM | IC50 (MDA-MB-231 [14]): 27 nM | IC50 (MCF7 [8]): 30 nM | IC50 (HCC1806 [10]): 9 nM

COc1cc(C)ccc1/C=C1\CCCC(C(=O)c2ccccc2)=C1O
viability at 10 µM (MDA-MB-231 [15]): 87% | viability at 10 µM (MCF7 [16]): 87% | viability at 10 µM (HCC1806 [17]): 87%
